Measurements: article PMC5118774 (Frontiers in Pharmacology, 2016)
Entries after “also recorded” stand apart in the source; their conditions may differ.

Experiments:
[1] = Plasma protein and brain tissue binding, rapid equilibrium dialysis; format: in vitro ADME, mouse
From the text: The rapid equilibrium dialysis assay used to determine free fraction of α5-PAM in mouse plasma and brain tissue was the same as in [Obradovic et al. (2014)].

[2] = Pharmacokinetic study, plasma and brain levels after single i.p. injection; format: in vivo, C57BL/6J mice; details: 30 mg/kg i.p.; for Brain AUC0-3: mean ± SEM
Protocol: Adult (8 weeks old) male and female C57BL/6J (Military Farm, Belgrade, Serbia) were divided into six groups corresponding to pre-determined time intervals following a single 30 mg/kg α5-PAM injection (5, 10, 20, 40, 60, and 180 min). At 30 mg/kg α5-PAM administration has high affinity for the α5-subunit and lower affinity for GABAA-receptors containing other subunits ([Savic et al., 2010]). As the goal of this study was to selectively evaluate positive modulation of α5-containing GABAA receptors to stress-induced behaviors, we chose this dose to conduct preliminary pharmacokinetic analyses. Blood samples were collected in heparinized syringes via cardiac puncture of mice anesthetized with ketamine (100 mg/kg i.p.; 10% Ketamidor, Richter Pharma Ag, Wels, Austria), and centrifuged at 2500 rpm for 10 min to obtain plasma. Thereafter, mice were decapitated and brains were weighed, homogenized in 2 mL of methanol and centrifuged at 6000 rpm for 20 min. To determine the concentration of α5-PAM in plasma and supernatants of brain tissue homogenates, α5-PAM was extracted by solid phase extraction using Oasis HLB cartridges (Waters Corporation, Milford, MA, USA). The procedure of sample preparation and determination of α5-PAM by ultra performance liquid chromatography–tandem mass spectrometry (UPLC–MS/MS) with Thermo Scientific Accela 600 UPLC system connected to a Thermo Scientific TSQ Quantum Access MAX triple quadrupole mass spectrometer (Thermo Fisher Scientific, San Jose, CA, USA) equipped with electrospray ionization (ESI) source, is described in [Obradovic et al. (2014)].

[3] = tested on: mice exposed to unpredictable chronic mild stress (UCMS); assay: Elevated plus maze after UCMS; format: in vivo, C57BL/6J mice; details: for EPM percentage of entries into open arms: first cohort (Figure 2)
[4] = tested on: mice exposed to unpredictable chronic mild stress (UCMS); assay: Open field test after UCMS; format: in vivo, C57BL/6J mice
[5] = tested on: mice exposed to unpredictable chronic mild stress (UCMS); assay: Composite emotionality Z-score across EPM, OFT, NSF, cookie test; format: in vivo, C57BL/6J mice
Protocol: To assess the consistency of effects of stress and drug treatment on overall stress-induced behavior, we calculated behavioral z-scores using the formula below. These normalized scores integrate measures of behavioral dimensions (e.g., emotionality) over time and tests, yielding a combined measure of the UCMS-induced behavioral syndrome ([Guilloux et al., 2011]).
Briefly, for each behavioral measure a Z-score was calculated for an individual animal indicating how many standard deviations (σ) a given observation (X) is from the mean of the control group (μ). These scores were averaged within test such that each test had the same weight, and then averaged across all four tests (EPM, OFT, NSF, cookie test) to obtain a composite emotionality Z-score for each mouse. In short, random or opposite behavior across tests yield null z-scores, whereas significant and/or trend-like behaviors across tests and consistently in the same directions yield high z-scores.

Gabra5 = Gabra5 transcript expression by qPCR in prelimbic cortex and hippocampus; format: in vivo, C57BL/6J mice
Protocol: Twenty-four hours after the final behavioral test, mice were injected with either an acute dose of α5-PAM or vehicle 30 min prior to rapid perfusion (2 ml 4%PFA). Brains were rapidly dissected and flash frozen on dry ice. 160 μm thick coronal sections were obtained using a cryostat. The prelimbic cortex and dorsal hippocampus were dissected with a 1 mm diameter micropunch and tissue samples were then frozen at -80°C. Total RNA was extracted with an RNAeasy FFPE kit (Qiagen, Germantown, MD, USA) and tested for purity on a NanoDrop Spectrophotometer (260/280 ≥ 1.9). RNA concentration and integrity (RIN > 7) were then assessed using the Agilent RNA6000 Pico-Kit and Agilent 2100 Bioanalyzer (Agilent Technologies, Santa Clara, CA, USA).
Approximately 90 ng of total RNA was used to generate cDNA via the qScript^TM cDNA Supermix synthesis kit (Quanta Biosciences, Gaithersburg, MD, USA). Real-time quantitative polymerase chain (qPCR) reactions were carried out using SYBR green fluorescence signal (Invitrogen, Carlsbad, CA, USA) and an Opticon Monitor DNA Engine (Bio-Rad, Berkeley, CA, USA). Gene of interest was the α5-subunit of the GABAA receptor (Gabra5). Samples were run in triplicate and ΔCt values were calculated by comparing the Ct values of Gabra5 to the geometric mean of two reference genes, β-Actin and glyceraldehyde 3-phosphate dehydrogenase (Gapdh). Arbitrary signal intensity was calculated as 2^-ΔCt∗10,000.

[6] = male UCMS mice, 37.5 mg/kg acute or chronic (Figure 4B), 37.5 mg/kg
[7] = male mice, UCMS plus single housing, chronic treatment (Figure 4A)
[8] = female UCMS mice, chronic treatment, vs UCMS-vehicle, second cohort (Figure 3)

Structure (SMILES): C#Cc1ccc2c(c1)C(c1ccccc1F)=N[C@H](C)c1c(C(=O)OCC)ncn1-2 [α5-PAM]
- free fraction, brain tissue ([1]; mouse brain tissue): 2.73%
- free fraction, plasma ([1]; mouse plasma): 7.44%
- Brain AUC0-3, females relative to males [2]: approximately 1.25 X
- Brain AUC0-3 ([2]; female mice): 4910.13 ± 1032.02 ng·h/g
- Brain AUC0-3 ([2]; male mice): 3944.49 ± 560.30 ng·h/g
- EPM open arm behavior ([3]; female UCMS mice, acute or chronic treatment, second cohort with non-stressed controls (Figure 3)): no effect
- EPM percentage of entries into open arms ([3]; female UCMS mice, chronic 30 mg/kg i.p., vs UCMS-vehicle): anti-stress effect; also recorded: increased percentage of open arm entries
- EPM, stress-induced behavior [3, 6]: No change; also recorded: failed to reduce
- EPM percentage of entries into open arms ([3]; male UCMS mice, acute or chronic 30 mg/kg i.p.): No significant differences; also recorded: no effect
- EPM, UCMS-induced behavioral phenotype [3, 7]: did not alter; also recorded: No significant effect
- OFT percentage of total distance traveled in the center [4, 8]: increases; also recorded: higher percentage of their total distance traveled
- OFT behavior ([4]; female and male UCMS mice, acute or chronic 30 mg/kg i.p., first cohort (Figure 2)): did not detect any significant main effects; also recorded: No effect
- OFT, stress-induced behavior [4, 6]: No change; also recorded: failed to reduce
- OFT, UCMS-induced behavioral phenotype [4, 7]: did not alter; also recorded: No significant effect
- Z-emotionality score ([5]; female UCMS mice, acute 30 mg/kg i.p., first cohort (Figure 2)): Significant anti-stress effect
- Z-emotionality score compared to non-stressed vehicle group ([5]; female UCMS mice, acute and chronic treatment groups, second cohort (Figure 3)): not statistically different
- Z-emotionality score ([5]; female UCMS mice, acute treatment, vs UCMS-vehicle, second cohort (Figure 3)): normalized; also recorded: significantly decreased
- Z-emotionality score ([5]; female UCMS mice, chronic 30 mg/kg i.p., first cohort (Figure 2)): Significant anti-stress effect
- Z-emotionality score [5, 8]: normalized; also recorded: significantly decreased
- Composite emotionality Z-score ([5]; male UCMS mice, 37.5 mg/kg acute or chronic (Figure 4D), 37.5 mg/kg): No effect; also recorded: lack of anti-stress activity
- Z-emotionality score ([5]; male UCMS mice, acute or chronic 30 mg/kg i.p., first cohort (Figure 2)): no effect
- Summary emotionality Z-score ([5]; male mice, UCMS plus single housing, chronic treatment (Figure 4C)): lack of effect; also recorded: does not remediate
- Gabra5 (α5) transcript expression, prelimbic cortex (Gabra5; female UCMS mice, acute treatment): significantly increased; also recorded: increases
- Gabra5 (α5-subunit) transcript expression, hippocampus (Gabra5; female UCMS mice, chronic treatment): increases
- Gabra5 gene expression (Gabra5; male UCMS mice, acute or chronic treatment, prelimbic cortex and hippocampus): No change
- Gabra5 (α5) transcript expression, prelimbic cortex (Gabra5; male or female UCMS mice, chronic treatment): No effect
